According to paper PMC12040169 (PLOS Biology, 2025):

Assay: in vitro
Conditions: human, hela cells, % viability
`COC(=O)CNC(=O)C1CC(=O)N(c2ccccc2Br)C1` (stereo not shown) [CBK296672] gave a viability at 28.5 h, 10 µM of 97.1%. Compound `O=C(CCc1ccc(S(=O)(=O)NC2CC2)cc1)N1CCCC1c1ccncc1` (stereo not shown) [CBK296673] has a viability at 28.5 h, 10 µM of 106%. Compound `CCC(C)(C)C1CCC(NC(=O)CSCCC(=O)O)CC1` (stereo not shown) [CBK296674] has a viability at 28.5 h, 10 µM of 107%. With `Cc1ccc2nc(C)cc(C(=O)OCc3ccc(C(N)=O)cc3)c2c1` [CBK296676] the viability at 28.5 h, 10 µM was 97.8%. Compound `CN(Cc1ccccc1NCCn1c(=O)oc2ccccc21)C1CCCCC1` [CBK296678] has a viability at 28.5 h, 10 µM of 78.1%. For `CC(C)Cn1c(SCC(=O)Nc2ccc(OC(F)F)cc2)nc(O)cc1=O` [CBK296679], the viability at 28.5 h, 10 µM was 91.2%. `COC(=O)c1ccc(NS(=O)(=O)c2ccc(C)c(C(=O)O)c2)c(C)c1` [CBK296684] showed a viability at 28.5 h, 10 µM of 105%. Work on `Cc1cc(C(=O)Nc2nc(Cc3n[nH]c(=S)n3C)cs2)sc1C` [CBK296687] yielded a viability at 28.5 h, 10 µM of 68.5%. For `Cc1ccc(C(=O)O)cc1S(=O)(=O)Nc1ccc(-c2cn3ccsc3n2)cc1` [CBK296688], the viability at 28.5 h, 10 µM was 85.2%. Work on `Cc1nc(NC(=O)Cc2c(C)nn(CC(C)C)c2C)sc1-c1n[nH]c(=S)n1C` [CBK296691] yielded a viability at 28.5 h, 10 µM of 88.6%. `CN(Cc1ccccc1N1CCOCC1)C(=O)c1ccc2ncsc2c1` [CBK296692] gave a viability at 28.5 h, 10 µM of 108%. In the case of `CCC(C)c1ccc(NC(C)C(=O)Nc2ccc3[nH]c(=O)[nH]c3c2)cc1` (stereo not shown) [CBK296694], the viability at 28.5 h, 10 µM is reported as 92.1%. `CN(C)CC(=O)N1CCN(c2ccc(C(=O)c3ccccc3)cc2[N+](=O)[O-])CC1` [CBK296699] gave a viability at 28.5 h, 10 µM of 85.4%. `CCn1c(=O)c(C=Cc2cc(OC)c(O)c(OC)c2)nc2cc(C(=O)O)ccc21` [CBK296701] showed a viability at 28.5 h, 10 µM of 85.1%. With `CC(C)(CC(=O)O)CC(=O)Nc1cc(S(=O)(=O)N2CCCC2)ccc1Cl` [CBK296702] the viability at 28.5 h, 10 µM was 95.4%. Compound `CCOc1ccc(C2=NN(C(=O)CCC(=O)O)C(c3ccc4nccnc4c3)C2)cc1` (stereo not shown) [CBK296703] has a viability at 28.5 h, 10 µM of 103%. Work on `CCOc1cc2c(cc1NS(=O)(=O)c1cc(C(=O)O)ccc1C)OC(C)C2` (stereo not shown) [CBK296711] yielded a viability at 28.5 h, 10 µM of 101%. `O=C(Nc1cccc(-c2nnn[nH]2)c1)c1ccc(C2CCCCC2)cc1` [CBK296712] gave a viability at 28.5 h, 10 µM of 114%. `O=C(CSCCOc1ccc(Br)cc1)Nc1ccc2c(c1)OCCO2` [CBK296714] showed a viability at 28.5 h, 10 µM of 108%. `O=C(Nc1cccc2ncccc12)c1cccc(Oc2ccccc2)c1` [CBK296716] showed a viability at 28.5 h, 10 µM of 91.7%. For `NC(=O)C1CCN(C(=O)c2cc(O)nc3ccccc23)CC1` [CBK296719], the viability at 28.5 h, 10 µM was 98.2%. Work on `COc1cc(C=CC(=O)O)ccc1OCc1cn2cc(Cl)ccc2n1` [CBK296722] yielded a viability at 28.5 h, 10 µM of 99.1%. `Cc1ccc(CCC2CCN(C(=O)c3ccc(O)nc3)CC2)cc1` [CBK296724] gave a viability at 28.5 h, 10 µM of 94.4%. `CCc1ccc(-c2csc(NS(=O)(=O)c3cccc(C(=O)O)c3)n2)cc1` [CBK296726] gave a viability at 28.5 h, 10 µM of 91%. For `Cc1ccc(CSCCNS(=O)(=O)c2ccsc2C(=O)O)cc1` [CBK296727], the viability at 28.5 h, 10 µM was 92.6%. `COc1ccccc1Oc1ccc(NS(=O)(=O)c2cccc(C(=O)O)c2)cc1` [CBK296728] gave a viability at 28.5 h, 10 µM of 108%. For `Cc1nc(NC(=O)c2ccoc2)sc1C` [CBK296729], the viability at 28.5 h, 10 µM was 103%. In the case of `O=C(NCc1ccccc1F)c1cccc(CN2C(=O)CSC2=O)c1` [CBK296730], the viability at 28.5 h, 10 µM is reported as 100%. For `CCOc1ccc(-c2nc(CSc3n[nH]c(=O)n3Cc3ccccc3)cs2)cc1` [CBK296737], the viability at 28.5 h, 10 µM was 102%. For `CC(c1ccc(S(C)(=O)=O)cc1)N(C)C(=O)COc1ccc2ccccc2c1` (stereo not shown) [CBK296738], the viability at 28.5 h, 10 µM was 103%. `Cc1ccc(-c2n[nH]c(=S)n2CCC(=O)N2CCC(c3c[nH]c4ccccc34)CC2)cc1` [CBK296739] showed a viability at 28.5 h, 10 µM of 86.8%. `O=C(CCN1C(=O)COc2ccccc21)Nc1ccnn1Cc1ccccc1Br` [CBK296740] showed a viability at 28.5 h, 10 µM of 99.8%. Compound `COc1ccc(-c2nc(COC(=O)c3cccnc3N)cs2)cc1OC` [CBK296741] has a viability at 28.5 h, 10 µM of 82.6%. Work on `Nc1nc(Cn2nc(-c3ccc(F)cc3)oc2=O)nc(Nc2ccc(F)cc2)n1` [CBK296742] yielded a viability at 28.5 h, 10 µM of 91.6%.
